Source: ChEMBL document CHEMBL1275342 (J Med Chem, 2010)

Key:
[1] = target: T1, Serine/threonine-protein kinase Nek2 (Homo sapiens, UniProt P51955)
T1 sequence (P51955 whole entry): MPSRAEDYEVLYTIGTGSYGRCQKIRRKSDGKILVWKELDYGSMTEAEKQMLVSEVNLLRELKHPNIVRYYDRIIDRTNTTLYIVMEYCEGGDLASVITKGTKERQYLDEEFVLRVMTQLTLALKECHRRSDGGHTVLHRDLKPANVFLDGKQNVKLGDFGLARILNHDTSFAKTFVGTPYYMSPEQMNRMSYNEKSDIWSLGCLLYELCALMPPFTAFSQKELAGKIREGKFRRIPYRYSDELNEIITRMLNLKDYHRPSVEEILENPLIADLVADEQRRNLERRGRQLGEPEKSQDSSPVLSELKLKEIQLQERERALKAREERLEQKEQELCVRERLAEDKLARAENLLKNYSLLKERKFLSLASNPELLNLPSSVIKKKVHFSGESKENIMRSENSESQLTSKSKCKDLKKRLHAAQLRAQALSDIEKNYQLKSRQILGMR
Description: Inhibition of NEK2 by microfluidic assay

[2] = target: Serine/threonine-protein kinase PLK1 (Homo sapiens, UniProt P53350); assay: Inhibition of PLK1 after 75 mins at room temperature by caliper method
[3] = target: T2, Serine/threonine-protein kinase Nek1 (Homo sapiens, UniProt Q96PY6); assay: Inhibition of NEK1 after 1 hr at room temperature by caliper method
T2 sequence (Q96PY6 whole entry): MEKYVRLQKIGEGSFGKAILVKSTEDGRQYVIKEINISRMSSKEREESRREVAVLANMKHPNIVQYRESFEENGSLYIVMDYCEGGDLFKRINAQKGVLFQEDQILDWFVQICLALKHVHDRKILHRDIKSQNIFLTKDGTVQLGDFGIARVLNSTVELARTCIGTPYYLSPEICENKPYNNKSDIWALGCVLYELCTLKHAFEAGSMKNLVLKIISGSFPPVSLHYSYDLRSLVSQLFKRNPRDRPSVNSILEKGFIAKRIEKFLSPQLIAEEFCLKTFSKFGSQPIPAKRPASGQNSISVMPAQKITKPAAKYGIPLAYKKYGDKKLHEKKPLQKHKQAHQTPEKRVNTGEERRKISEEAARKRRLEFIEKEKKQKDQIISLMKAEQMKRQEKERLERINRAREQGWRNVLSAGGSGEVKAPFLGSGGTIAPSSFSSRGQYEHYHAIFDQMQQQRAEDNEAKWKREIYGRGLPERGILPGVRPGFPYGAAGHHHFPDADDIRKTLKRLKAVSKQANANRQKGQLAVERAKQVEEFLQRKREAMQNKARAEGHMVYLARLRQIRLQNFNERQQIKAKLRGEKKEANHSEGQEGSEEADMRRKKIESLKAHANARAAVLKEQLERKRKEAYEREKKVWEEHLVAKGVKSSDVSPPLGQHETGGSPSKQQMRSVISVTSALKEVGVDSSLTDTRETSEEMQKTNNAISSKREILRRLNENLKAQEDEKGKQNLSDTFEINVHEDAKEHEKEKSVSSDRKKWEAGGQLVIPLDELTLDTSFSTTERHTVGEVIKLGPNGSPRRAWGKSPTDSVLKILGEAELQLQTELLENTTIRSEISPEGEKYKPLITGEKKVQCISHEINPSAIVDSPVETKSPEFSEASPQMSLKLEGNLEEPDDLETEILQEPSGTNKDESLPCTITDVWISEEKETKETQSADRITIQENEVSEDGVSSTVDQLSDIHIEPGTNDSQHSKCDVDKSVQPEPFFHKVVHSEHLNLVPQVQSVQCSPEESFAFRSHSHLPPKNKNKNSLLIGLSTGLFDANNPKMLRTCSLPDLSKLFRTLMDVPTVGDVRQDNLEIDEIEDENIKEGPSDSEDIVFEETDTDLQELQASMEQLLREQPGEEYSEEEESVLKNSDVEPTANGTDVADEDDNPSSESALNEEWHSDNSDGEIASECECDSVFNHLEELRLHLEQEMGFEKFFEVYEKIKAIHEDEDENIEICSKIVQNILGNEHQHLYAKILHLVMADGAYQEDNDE

[4] = target: T3, Serine/threonine-protein kinase Chk1 (Homo sapiens, UniProt O14757); assay: Inhibition of CHK1
T3 sequence (O14757 whole entry): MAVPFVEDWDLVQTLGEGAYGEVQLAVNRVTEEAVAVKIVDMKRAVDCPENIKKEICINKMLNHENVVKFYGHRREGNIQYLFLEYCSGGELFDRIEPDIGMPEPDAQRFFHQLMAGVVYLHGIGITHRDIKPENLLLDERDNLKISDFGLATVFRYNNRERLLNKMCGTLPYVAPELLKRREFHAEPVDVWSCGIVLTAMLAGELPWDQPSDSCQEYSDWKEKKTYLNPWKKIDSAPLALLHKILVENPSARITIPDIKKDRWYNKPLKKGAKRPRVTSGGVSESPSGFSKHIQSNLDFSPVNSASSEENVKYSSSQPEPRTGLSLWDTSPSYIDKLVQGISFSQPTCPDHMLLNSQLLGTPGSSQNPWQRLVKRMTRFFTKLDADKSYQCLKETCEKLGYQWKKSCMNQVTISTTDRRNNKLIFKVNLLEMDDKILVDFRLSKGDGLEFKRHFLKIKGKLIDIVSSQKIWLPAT

[5] = target: T1, Serine/threonine-protein kinase Nek2; remark: listed apart in the source
Description: Inhibition of NEK2 autophosphorylation after 2 hrs by DELFIA assay

[6] = target: T1, Serine/threonine-protein kinase Nek2; remark: listed apart in the source
Description: Inhibition of NEK2 assessed as inhibition of substrate phosphorylation

Chain of Serine/threonine-protein kinase PLK1 (P53350 whole entry): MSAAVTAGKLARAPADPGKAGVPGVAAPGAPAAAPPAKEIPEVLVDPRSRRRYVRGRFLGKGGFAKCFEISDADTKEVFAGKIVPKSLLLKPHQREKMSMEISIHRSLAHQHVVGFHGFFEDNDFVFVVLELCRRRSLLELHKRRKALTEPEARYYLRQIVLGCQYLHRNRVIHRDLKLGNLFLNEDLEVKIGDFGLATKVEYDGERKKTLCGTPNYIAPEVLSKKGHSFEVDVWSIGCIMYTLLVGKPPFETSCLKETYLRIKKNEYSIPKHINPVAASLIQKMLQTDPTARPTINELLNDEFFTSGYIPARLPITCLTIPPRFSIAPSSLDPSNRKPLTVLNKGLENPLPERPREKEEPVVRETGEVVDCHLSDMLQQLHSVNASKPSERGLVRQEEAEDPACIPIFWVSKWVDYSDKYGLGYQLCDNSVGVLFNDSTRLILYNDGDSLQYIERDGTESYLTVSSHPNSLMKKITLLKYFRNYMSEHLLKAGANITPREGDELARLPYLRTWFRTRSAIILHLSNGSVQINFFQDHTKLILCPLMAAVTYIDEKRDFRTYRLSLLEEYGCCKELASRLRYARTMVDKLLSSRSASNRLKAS

Compound	IC50 [1]	also measured
COc1cc(-c2cnc(N)c(N3CC[C@@H](C(=O)O)[C@@H](C4CC4)C3)n2)cc(OC)c1OC (racemic)	38.3 µM	–
COc1cc(-c2cnc(N)c(N3CC[C@@H](C(=O)O)[C@@H](C)[C@H]3C)n2)cc(OC)c1OC	–	IC50 [2]: 19.4 µM; IC50 [3]: 0.17 µM; IC50 [4]: > 100 µM
Nc1ncc(-c2cccs2)nc1N1CCC(C(=O)O)CC1	4.3 µM	–
Nc1nccnc1N1CCC(C(=O)O)CC1	48.5 µM	–
COc1cc(-c2cnc(N)c(N3CC[C@H](C(=O)O)[C@@H](C)C3)n2)cc(OC)c1OC (racemic)	2.7 µM	–
CCc1cc(-c2nc(-c3cc(OC)c(OC)c(OC)c3)cnc2N)ccc1C(=O)O	26.2 µM	–
CCC[C@@H]1C[C@H](C(=O)O)CCN1c1nc(-c2cc(OC)c(OC)c(OC)c2)cnc1N (racemic)	5.4 µM	–
COc1cc(-c2cnc(N)c(N3CCC(C(N)=O)CC3)n2)cc(OC)c1OC	5.7 µM	–
CCC[C@H]1CN(c2nc(-c3cc(OC)c(OC)c(OC)c3)cnc2N)CC[C@H]1C(=O)O (racemic)	11.2 µM	–
COc1cc(OC)cc(-c2cnc(N)c(N3CCC(C(=O)O)CC3)n2)c1	1.9 µM	–
Nc1ncc(-c2sccc2C2CCCC2)nc1N1CCC(C(=O)O)CC1	3.4 µM	–
COc1cc(-c2cnc(N)c(N3CCCCC3)n2)cc(OC)c1OC	> 50 µM	–
COc1ccc(-c2cnc(N)c(N3CCC(C(=O)O)CC3)n2)cc1	19.8 µM	–
COc1cc(-c2cnc(N)c(N3CC[C@@H](C(=O)O)C[C@H]3C)n2)cc(OC)c1OC (racemic)	1.2 µM	–
CC[C@H]1CN(c2nc(-c3cc(OC)c(OC)c(OC)c3)cnc2N)CC[C@@H]1C(=O)O (racemic)	11.3 µM	–
Nc1ncc(-c2sccc2C2CC2)nc1N1CCC(C(=O)O)CC1	1.6 µM	–
COc1cc(-c2cnc(N)c(N3CC[C@@H](C(=O)O)[C@@H](C)C3)n2)cc(OC)c1OC	0.39 µM	–
COc1cc(-c2cnc(N)c(N3CC[C@@H](C(=O)O)C[C@H]3C(C)C)n2)cc(OC)c1OC (racemic)	5.9 µM	–
CC[C@@H]1C[C@H](C(=O)O)CCN1c1nc(-c2cc(OC)c(OC)c(OC)c2)cnc1N (racemic)	1.4 µM	–
CCc1ccsc1-c1cnc(N)c(N2CCC(C(=O)O)CC2)n1	2.1 µM	IC50 [2]: 8.5 µM; IC50 [3]: 22.5 µM; IC50 [4]: > 100 µM; IC50 [5]: 0.72 µM; IC50 [6]: 1.9 µM
COc1ccc(-c2cnc(N)c(N3CCC(C(=O)O)CC3)n2)cc1OC	1.9 µM	–
COc1cc(-c2cnc(N)c(-c3ccc(C(=O)O)cc3C)n2)cc(OC)c1OC	> 50 µM	–
Nc1ncc(-c2ccccc2)nc1N1CCC(C(=O)O)CC1	7.8 µM	–
COc1cc(-c2cnc(N)c(N3CC[C@@H](C(=O)O)[C@@H](C)C3)n2)cc(OC)c1OC (racemic)	0.72 µM	–
Nc1ncc(-c2ccsc2)nc1N1CCC(C(=O)O)CC1	7.2 µM	–
COC(=O)C1CCN(c2nc(-c3cc(OC)c(OC)c(OC)c3)cnc2N)CC1	18.3 µM	–
COc1cc(-c2cnc(N)c(N3CCC(C(=O)O)CC3)n2)cc(OC)c1OC	–	IC50 [2]: 22.6 µM; IC50 [3]: 2.6 µM; IC50 [4]: > 100 µM
COc1cc(-c2cnc(N)c(N3CC[C@H](C(=O)O)[C@H](C)C3)n2)cc(OC)c1OC	10.8 µM	–
COc1cc(-c2cnc(N)c(-c3ccc(C(=O)O)cc3)n2)cc(OC)c1OC	–	IC50 [5]: 0.71 µM; IC50 [6]: 1.6 µM
